Measurements published in patent US8124361B2, “Methods of screening for sweet taste modulators” (Givaudan SA, priority 2006, dated 2012).

Experiments:
[1] = molecular target: T1, transmembrane domains of TAS1R (Homo sapiens, UniProt Q7RTX0+Q8TE23, C757R); experiment: Identification of candidate sweetness enhancers that bind to the transmembrane domains; type: binding; settings: identified by the applicants as candidate sweetness enhancers
T1 sequence (Q8TE23 20-839): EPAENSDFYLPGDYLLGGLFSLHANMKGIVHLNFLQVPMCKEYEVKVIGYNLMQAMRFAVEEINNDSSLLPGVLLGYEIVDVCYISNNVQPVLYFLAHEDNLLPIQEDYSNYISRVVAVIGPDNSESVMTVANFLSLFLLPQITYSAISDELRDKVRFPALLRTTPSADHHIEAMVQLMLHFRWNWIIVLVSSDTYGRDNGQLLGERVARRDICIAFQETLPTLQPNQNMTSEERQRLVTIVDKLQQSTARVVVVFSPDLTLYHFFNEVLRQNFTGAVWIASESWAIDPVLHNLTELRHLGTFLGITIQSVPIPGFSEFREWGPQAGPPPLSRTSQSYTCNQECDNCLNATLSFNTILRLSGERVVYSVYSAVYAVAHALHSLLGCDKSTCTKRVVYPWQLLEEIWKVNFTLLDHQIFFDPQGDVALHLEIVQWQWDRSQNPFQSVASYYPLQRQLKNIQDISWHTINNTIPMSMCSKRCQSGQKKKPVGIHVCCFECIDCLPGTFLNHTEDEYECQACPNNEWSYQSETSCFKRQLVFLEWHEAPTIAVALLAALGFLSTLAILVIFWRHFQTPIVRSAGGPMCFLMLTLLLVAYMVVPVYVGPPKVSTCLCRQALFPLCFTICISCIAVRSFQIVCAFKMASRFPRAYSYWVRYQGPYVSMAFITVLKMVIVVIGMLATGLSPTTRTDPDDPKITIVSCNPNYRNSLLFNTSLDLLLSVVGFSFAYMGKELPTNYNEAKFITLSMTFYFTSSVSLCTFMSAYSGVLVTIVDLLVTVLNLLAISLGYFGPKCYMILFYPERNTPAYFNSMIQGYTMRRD
T1 sequence (Q7RTX0 21-852 C757R): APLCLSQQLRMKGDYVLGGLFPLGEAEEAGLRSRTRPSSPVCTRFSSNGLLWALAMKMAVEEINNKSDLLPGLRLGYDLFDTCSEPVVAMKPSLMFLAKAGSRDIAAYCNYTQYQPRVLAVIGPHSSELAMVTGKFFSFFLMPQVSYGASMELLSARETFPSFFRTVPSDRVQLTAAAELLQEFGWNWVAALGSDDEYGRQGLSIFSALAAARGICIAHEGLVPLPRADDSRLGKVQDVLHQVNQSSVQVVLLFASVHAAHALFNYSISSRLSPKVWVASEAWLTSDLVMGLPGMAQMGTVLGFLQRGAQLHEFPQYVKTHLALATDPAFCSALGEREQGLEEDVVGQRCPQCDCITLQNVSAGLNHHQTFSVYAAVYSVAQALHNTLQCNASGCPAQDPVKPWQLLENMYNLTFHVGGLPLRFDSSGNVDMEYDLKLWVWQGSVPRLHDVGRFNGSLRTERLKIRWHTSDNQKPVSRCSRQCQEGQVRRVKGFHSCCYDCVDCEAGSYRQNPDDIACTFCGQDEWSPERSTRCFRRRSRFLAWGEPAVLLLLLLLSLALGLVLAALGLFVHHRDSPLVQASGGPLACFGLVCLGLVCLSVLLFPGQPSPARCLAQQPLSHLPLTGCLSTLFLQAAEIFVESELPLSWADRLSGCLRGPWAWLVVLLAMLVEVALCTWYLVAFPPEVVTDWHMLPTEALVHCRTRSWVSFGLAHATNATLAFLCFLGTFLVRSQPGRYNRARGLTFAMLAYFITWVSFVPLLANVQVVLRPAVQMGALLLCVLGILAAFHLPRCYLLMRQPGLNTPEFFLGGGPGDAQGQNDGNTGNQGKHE

[2] = system: sweet sensitive panelists; experiment: Ranking test of sweetness isointensity (R-index), sensory panel; type: in vivo, human; settings: for sweetness equivalent to sucrose (isointensity): by interpolation; for sample sweetness (0.5% sucrose) / sample sweetness (p-ethoxybenzaldehyde, 75 ppm): nose clips
Experimental: (§1) The sensory evaluation was conducted using a ranking method. Samples at ambient temperature were randomly presented in 15 ml blind aliquots (unidentifiable by panelists). Panels consisted of 10 sweet sensitive subjects and samples were presented in 3 replications over 1 session. After tasting each sample, the mouth was rinsed thoroughly with water at ambient temperature prior to tasting the next sample. […] They were asked to rank the samples from low to high with respect to perceived sweet taste.
as §1, with “taste. […] From ranking-style sensory tests, a matrix of responses (see table X below) is constructed such that each cell contains the number of times a given sample was ranked at a particular location.” for “taste.”
Essentially, the R-index is a measure of difference between two samples. The R-index has a chance level of detection of 50%. […] The critical value is the statistically relevant value that the derived R-index must deviate from (i.e greater or less than) in order to be considered significant.

[3] = system: sweet sensitive panelists; experiment: Paired comparison of sweetness versus sucrose, sensory panel; type: in vivo, human

**Q.** `C=C1C[C@@]23CC[C@H]4[C@@](C)(CCC[C@@]4(C)C(=O)O[C@@H]4O[C@H](CO)[C@@H](O)[C@H](O)[C@H]4O)[C@@H]2CC[C@]1(O[C@@H]1O[C@H](CO)[C@@H](O)[C@H](O)[C@H]1O[C@@H]1O[C@H](CO)[C@@H](O)[C@H](O)[C@H]1O)C3` [stevioside] was tested. Which “binding to the transmembrane domains of TAS1R” value (“binding” for short) [1] did it give?
**A.** The value was “bind to the transmembrane domains of TAS1R”.

**Q.** Which “binding” value [1] does the source give for `C=C1C[C@@]23CC[C@H]4[C@@](C)(CCC[C@@]4(C)C(=O)O[C@@H]4O[C@H](CO)[C@@H](O)[C@H](O)[C@H]4O)[C@@H]2CC[C@]1(O[C@@H]1O[C@H](CO)[C@@H](O)[C@H](O[C@@H]2O[C@H](CO)[C@@H](O)[C@H](O)[C@H]2O)[C@H]1O[C@@H]1O[C@H](CO)[C@@H](O)[C@H](O)[C@H]1O)C3` [rebaudioside A] here?
**A.** Its value is “bind to the transmembrane domains of TAS1R”.

**Q.** Which “sweetness equivalent to sucrose (isointensity)” value ([2]; 60 ppm NarDHC in water) does the source give for `C[C@@H]1O[C@@H](O[C@H]2[C@H](Oc3cc(O)c(C(=O)CCc4ccc(O)cc4)c(O)c3)O[C@H](CO)[C@@H](O)[C@@H]2O)[C@H](O)[C@H](O)[C@H]1O` [NarDHC, naringin dihydrochalcone] here?
**A.** Its value is “about 1.25 % sucrose”.

**Q.** And the Result of comparison ([3]; 45 ppm NarDHC in water vs 0% sucrose)?
**A.** Its Result of comparison is “weakly sweeter”.

**Q.** And the Result of comparison ([3]; 45 ppm NarDHC in water vs 0.5% sucrose)?
**A.** The Result of comparison was “isosweet”.

**Q.** What about the Result of comparison ([3]; 45 ppm NarDHC in water vs 1% sucrose) of the same compound?
**A.** The Result of comparison was “less sweet”.

**Q.** And the Result of comparison ([3]; 50 ppm NarDHC in water vs 0.5% sucrose)?
**A.** Its Result of comparison is “notably sweeter”.

**Q.** What about the Result of comparison ([3]; 50 ppm NarDHC in water vs 1% sucrose) of the same compound?
**A.** The Result of comparison was “less sweet”.

**Q.** What about the Result of comparison ([3]; 55 ppm NarDHC in water vs 0.5% sucrose) of the same compound?
**A.** The Result of comparison was “notably sweeter”.

**Q.** And the Result of comparison ([3]; 55 ppm NarDHC in water vs 1% sucrose)?
**A.** The Result of comparison was “isosweet”.

**Q.** And the Result of comparison ([3]; 60 ppm NarDHC in water vs 1% sucrose)?
**A.** The Result of comparison was “notably sweeter”.

**Q.** What about the Result of comparison ([3]; 60 ppm NarDHC in water vs 1.5% sucrose) of the same compound?
**A.** Its Result of comparison is “significantly less sweet”.

**Q.** And the “binding” value [1]?
**A.** Its value is “bind to the transmembrane domains of TAS1R”.

**Q.** With `C=C1C[C@@]23CC[C@H]4[C@@](C)(CCC[C@@]4(C)C(=O)O[C@@H]4O[C@H](CO)[C@@H](O)[C@H](O)[C@H]4O)[C@@H]2CC[C@]1(O[C@@H]1O[C@H](CO)[C@@H](O)[C@H](O)[C@H]1O)C3` [rubusoside] as the compound, how does the “binding” value [1] read?
**A.** Its value is “bind to the transmembrane domains of TAS1R”.

**Q.** `C[C@H](CC[C@@H](O[C@@H]1O[C@H](CO[C@@H]2O[C@H](CO)[C@@H](O)[C@H](O)[C@H]2O)[C@@H](O)[C@H](O)[C@H]1O[C@@H]1O[C@H](CO)[C@@H](O)[C@H](O)[C@H]1O)C(C)(C)O)[C@H]1CC[C@@]2(C)[C@@H]3CC=C4[C@@H](CC[C@H](O[C@@H]5O[C@H](CO[C@@H]6O[C@H](CO)[C@@H](O)[C@H](O)[C@H]6O)[C@@H](O)[C@H](O)[C@H]5O)C4(C)C)[C@]3(C)[C@H](O)C[C@]12C` [mogroside V] was tested. Which “binding” value [1] did it give?
**A.** The value was “bind to the transmembrane domains of TAS1R”.

**Q.** For `CCOc1ccc(C=O)cc1` [p-ethoxybenzaldehyde], which “sample sweetness (0.5% sucrose)” value ([2]; 0.5% sucrose sample ranked against 100 ppm p-ethoxybenzaldehyde in water) is on record?
**A.** The value was “isosweet”.

**Q.** And the “sample sweetness (0.5% sucrose)” value ([2]; 0.5% sucrose sample ranked against 150 ppm p-ethoxybenzaldehyde in water)?
**A.** Its value is “less sweet”.

**Q.** What about the “sweetness isointensity to sucrose” value ([2]; 7% sucrose and 75 ppm p-ethoxybenzaldehyde) of the same compound?
**A.** The value was 8 % sucrose.

**Q.** What about the “sample sweetness (p-ethoxybenzaldehyde, 75 ppm)” value ([2]; 75 ppm in water vs 0.5% sucrose) of the same compound?
**A.** Its value is “less sweet”.

**Q.** And the “sample sweetness (p-ethoxybenzaldehyde, 75 ppm)” value ([2]; 75 ppm in water vs 1% sucrose)?
**A.** The value was “less sweet”.

**Q.** What about the p-ethoxybenzaldehyde sample sweetness ([2]; 75 ppm p-ethoxybenzaldehyde in 7% sucrose vs 7% sucrose) of the same compound?
**A.** The p-ethoxybenzaldehyde sample sweetness was “sweeter”.

**Q.** What about the p-ethoxybenzaldehyde sample sweetness ([2]; 75 ppm p-ethoxybenzaldehyde in 7% sucrose vs 8% sucrose) of the same compound?
**A.** The p-ethoxybenzaldehyde sample sweetness was “isosweet”.

**Q.** What about the p-ethoxybenzaldehyde sample sweetness ([2]; 75 ppm p-ethoxybenzaldehyde in 7% sucrose vs 9% sucrose) of the same compound?
**A.** Its p-ethoxybenzaldehyde sample sweetness is “less sweet”.

**Q.** And the p-ethoxybenzaldehyde sample sweetness ([2]; 75 ppm p-ethoxybenzaldehyde in 7% sucrose vs 10% sucrose)?
**A.** The p-ethoxybenzaldehyde sample sweetness was “less sweet”.

**Q.** And the p-ethoxybenzaldehyde sample sweetness ([2]; 75 ppm p-ethoxybenzaldehyde in 7% sucrose vs 11% sucrose)?
**A.** Its p-ethoxybenzaldehyde sample sweetness is “less sweet”.

**Q.** What about the “sweetness equivalent to sucrose (isointensity)” value ([2]; 75 ppm p-ethoxybenzaldehyde in water, below the detection threshold for sweet) of the same compound?
**A.** Its value is 0.25 % sucrose.

**Q.** And the “sample sweetness (p-ethoxybenzaldehyde, 100 ppm)” value ([2]; 100 ppm in water vs 150 ppm cyclamate)?
**A.** Its value is “isosweet”.

**Q.** And the “sample sweetness (p-ethoxybenzaldehyde, 100 ppm)” value ([2]; 100 ppm in water vs 200 ppm cyclamate)?
**A.** Its value is “less sweet”.

**Q.** What about the “sample sweetness (p-ethoxybenzaldehyde, 100 ppm)” value ([2]; 100 ppm in water vs 250 ppm cyclamate) of the same compound?
**A.** Its value is “less sweet”.

**Q.** And the “cyclamate equivalent in sweetness added” value ([2]; 100 ppm p-ethoxybenzaldehyde added to 1700 ppm cyclamate)?
**A.** Its value is 400 ppm cyclamate.

**Q.** What about the p-ethoxybenzaldehyde sample sweetness ([2]; 100 ppm p-ethoxybenzaldehyde in 1700 ppm cyclamate vs 1700 ppm cyclamate) of the same compound?
**A.** The p-ethoxybenzaldehyde sample sweetness was “sweeter”.

**Q.** And the p-ethoxybenzaldehyde sample sweetness ([2]; 100 ppm p-ethoxybenzaldehyde in 1700 ppm cyclamate vs 1900 ppm cyclamate)?
**A.** Its p-ethoxybenzaldehyde sample sweetness is “sweeter”.

**Q.** What about the p-ethoxybenzaldehyde sample sweetness ([2]; 100 ppm p-ethoxybenzaldehyde in 1700 ppm cyclamate vs 2100 ppm cyclamate) of the same compound?
**A.** The p-ethoxybenzaldehyde sample sweetness was “isosweet”.

**Q.** What about the p-ethoxybenzaldehyde sample sweetness ([2]; 100 ppm p-ethoxybenzaldehyde in 1700 ppm cyclamate vs 2300 ppm cyclamate) of the same compound?
**A.** Its p-ethoxybenzaldehyde sample sweetness is “less sweet”.

**Q.** What about the p-ethoxybenzaldehyde sample sweetness ([2]; 100 ppm p-ethoxybenzaldehyde in 1700 ppm cyclamate vs 2500 ppm cyclamate) of the same compound?
**A.** The p-ethoxybenzaldehyde sample sweetness was “less sweet”.

**Q.** And the “sweetness A versus B” value ([2]; 600 ppm (A) vs 700 ppm (B) p-ethoxybenzaldehyde in water)?
**A.** Its value is “less sweet than”.

**Q.** What about the “sweetness A versus B” value ([2]; 700 ppm (A) vs 800 ppm (B) p-ethoxybenzaldehyde in water) of the same compound?
**A.** Its value is “less sweet than”.

**Q.** What about the “sweetness A versus B” value ([2]; 800 ppm (A) vs 900 ppm (B) p-ethoxybenzaldehyde in water) of the same compound?
**A.** The value was “less sweet than”.

**Q.** What about the “sweetness A versus B” value ([2]; 900 ppm (A) vs 1000 ppm (B) p-ethoxybenzaldehyde in water) of the same compound?
**A.** The value was “less sweet than”.

**Q.** What about the cyclamate isointensity ([2]; 1700 ppm cyclamate+100 ppm p-ethoxybenzaldehyde) of the same compound?
**A.** The cyclamate isointensity was 2100 ppm cyclamate.
